A short description of series [1]: Human plasma half-life assay. To be noted: human plasma, 37° C., LC-MS; read-out: Human Plasma T½ (converted). Format: in vitro ADME.
The nature of series [2]: Rat plasma half-life assay. Format: in vitro ADME. As to conditions: rat plasma, 37° C., LC-MS; read-out: Rat Plasma T½ (converted).
Series [3] deals with T1, human recombinant GIP receptor (Homo sapiens, UniProt P48546).
T1 construct: expressed in transfected cells; host or cells: CHO-K1 clonal cells (membranes)
T1 sequence (P48546 22-466): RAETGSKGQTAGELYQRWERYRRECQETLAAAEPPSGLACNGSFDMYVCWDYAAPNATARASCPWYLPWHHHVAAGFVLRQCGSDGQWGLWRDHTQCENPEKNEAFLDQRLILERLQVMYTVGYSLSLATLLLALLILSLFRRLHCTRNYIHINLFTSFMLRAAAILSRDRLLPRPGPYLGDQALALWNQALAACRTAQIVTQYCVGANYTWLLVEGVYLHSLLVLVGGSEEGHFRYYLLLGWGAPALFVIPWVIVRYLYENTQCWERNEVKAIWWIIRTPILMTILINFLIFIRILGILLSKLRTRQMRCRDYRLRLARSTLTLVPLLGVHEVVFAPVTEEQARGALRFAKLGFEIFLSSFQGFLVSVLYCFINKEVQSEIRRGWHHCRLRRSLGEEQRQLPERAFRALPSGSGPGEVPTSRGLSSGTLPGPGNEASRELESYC
The series can be described thus: In vitro hGIP receptor binding assay ([125I]GIP displacement, CHO-K1 membranes). From the text: A. In Vitro hGIP Receptor Binding Assay

Where a SMILES comes first, the peptide text is derived from it. [ ]: non-standard residue; d: D form. Nle = CCCC[C@H](N)C(=O)O; Ac5c = NC1(C(=O)O)CCCC1; Aib = CC(C)(N)C(=O)O Some results are limits rather than exact numbers.

A word on the Ki: it is a dissociation constant, usually derived from enzyme kinetics or from competition with a known ligand. Consider `CCCC[C@H](NC(=O)C(C)(C)NC(=O)[C@@H](NC(=O)[C@H](CO)NC(=O)[C@H](Cc1ccc(O)cc1)NC(=O)[C@H](CC(=O)O)NC(=O)[C@H](CO)NC(=O)[C@@H](NC(=O)[C@H](Cc1ccccc1)NC(=O)[C@@H](NC(=O)CNC(=O)[C@H](CCC(=O)O)NC(=O)C(C)(C)NC(=O)[C@@H](N)Cc1ccc(O)cc1)[C@@H](C)O)[C@@H](C)CC)[C@@H](C)CC)C(=O)N[C@@H](CC(=O)O)C(=O)N[C@@H](CCCCN)C(=O)N[C@H](C(=O)N[C@@H](Cc1c[nH]cn1)C(=O)N[C@@H](CCC(N)=O)C(=O)N[C@@H](CCC(N)=O)C(=O)N[C@@H](CC(=O)O)C(=O)N[C@@H](Cc1ccccc1)C(=O)N[C@H](C(=O)N[C@@H](CC(N)=O)C(=O)N[C@@H](Cc1c[nH]c2ccccc12)C(=O)N[C@@H](CC(C)C)C(=O)N[C@@H](CC(C)C)C(=O)N[C@@H](C)C(=O)N[C@@H](CCC(N)=O)C(=O)N[C@@H](CCCCN)C(=O)NCC(=O)N[C@@H](CCCCN)C(=O)N[C@@H](CCCCN)C(=O)N[C@@H](CC(N)=O)C(=O)N[C@@H](CC(=O)O)C(=O)N[C@@H](Cc1c[nH]c2ccccc12)C(=O)N[C@@H](CCCCN)C(=O)N[C@@H](Cc1c[nH]cn1)C(=O)N[C@@H](CC(N)=O)C(=O)N[C@H](C(=O)N[C@H](C(=O)N[C@@H](CCC(N)=O)C(=O)O)[C@@H](C)O)[C@@H](C)CC)C(C)C)[C@@H](C)CC` [Example 57, (Aib^2, 13, Nle^14)hGIP(1-42)-OH], for which the half-life at 0.1 mg/ml in series [1] is 30.5 h; in series [2] it was 13.8 h. Further, the inhibition constant Ki in series [3] was found to be 0.05 nM.

Regarding `CC[C@H](C)[C@H](NC(=O)[C@H](CCCCN)NC(=O)[C@H](CC(=O)O)NC(=O)[C@H](CCSC)NC(=O)[C@H](C)NC(=O)[C@@H](NC(=O)C1(NC(=O)[C@H](Cc2ccc(O)cc2)NC(=O)[C@H](CC(=O)O)NC(=O)[C@H](CO)NC(=O)[C@@H](NC(=O)[C@H](Cc2ccccc2)NC(=O)[C@@H](NC(=O)CNC(=O)[C@H](CCC(=O)O)NC(=O)C(C)(C)NC(=O)[C@@H](N)Cc2ccc(O)cc2)[C@@H](C)O)[C@@H](C)CC)CCCC1)[C@@H](C)CC)C(=O)N[C@@H](Cc1c[nH]cn1)C(=O)N[C@@H](CCC(N)=O)C(=O)N[C@@H](CCC(N)=O)C(=O)N[C@@H](CC(=O)O)C(=O)N[C@@H](Cc1ccccc1)C(=O)N[C@H](C(=O)N[C@@H](CC(N)=O)C(=O)N[C@@H](Cc1c[nH]c2ccccc12)C(=O)N[C@@H](CC(C)C)C(=O)N[C@@H](CC(C)C)C(=O)N[C@@H](C)C(=O)N[C@@H](CCC(N)=O)C(=O)N[C@@H](CCCCN)C(N)=O)C(C)C` [Example 46, (Aib^2, A5c^11)hGIP(1-30)-NH2] (H-Y[Aib]EGTFISDY[Ac5c]IAMDKIHQQDFVNWLLAQK-NH2; N-terminus assumed), the figures for the half-life at 0.1 mg/ml in series [1] and in series [2] were 12.2 h and more than 54 h, respectively. Also, in series [3], the Ki was determined as 0.09 nM.

Turning to `CCCC[C@H](NC(=O)[C@H](C)NC(=O)[C@@H](NC(=O)[C@H](CO)NC(=O)[C@H](Cc1ccc(O)cc1)NC(=O)[C@H](CC(=O)O)NC(=O)[C@H](CO)NC(=O)[C@@H](NC(=O)[C@H](Cc1ccccc1)NC(=O)[C@@H](NC(=O)CNC(=O)[C@H](CCC(=O)O)NC(=O)C1(NC(=O)[C@@H](N)Cc2ccc(O)cc2)CCCC1)[C@@H](C)O)[C@@H](C)CC)[C@@H](C)CC)C(=O)N[C@@H](CC(=O)O)C(=O)N[C@@H](CCCCN)C(=O)N[C@H](C(=O)N[C@@H](Cc1c[nH]cn1)C(=O)N[C@@H](CCC(N)=O)C(=O)N[C@@H](CCC(N)=O)C(=O)N[C@@H](CC(=O)O)C(=O)N[C@@H](Cc1ccccc1)C(=O)N[C@H](C(=O)N[C@@H](CC(N)=O)C(=O)N[C@@H](Cc1c[nH]c2ccccc12)C(=O)N[C@@H](CC(C)C)C(=O)N[C@@H](CC(C)C)C(=O)N[C@@H](C)C(=O)N[C@@H](CCC(N)=O)C(=O)N[C@@H](CCCCN)C(=O)NCC(=O)N[C@@H](CCCCN)C(=O)N[C@@H](CCCCN)C(=O)N[C@@H](CC(N)=O)C(=O)N[C@@H](CC(=O)O)C(=O)N[C@@H](Cc1c[nH]c2ccccc12)C(=O)N[C@@H](CCCCN)C(=O)N[C@@H](Cc1c[nH]cn1)C(=O)N[C@@H](CC(N)=O)C(=O)N[C@H](C(=O)N[C@H](C(=O)N[C@@H](CCC(N)=O)C(=O)O)[C@@H](C)O)[C@@H](C)CC)C(C)C)[C@@H](C)CC` [Example 40, (A5c^2, Nle^14)hGIP(1-42)-OH], the half-life at 0.1 mg/ml is 7.7 h in series [1] and 4.9 h in series [2]. In series [3], the Ki was determined as 15.9 nM.

In the case of `CC[C@H](C)[C@H](NC(=O)[C@H](CO)NC(=O)[C@H](Cc1ccc(O)cc1)NC(=O)[C@H](CC(=O)O)NC(=O)C(C)(C)NC(=O)[C@@H](NC(=O)[C@H](Cc1ccccc1)NC(=O)[C@@H](NC(=O)CNC(=O)[C@H](CCC(=O)O)NC(=O)C(C)(C)NC(=O)[C@@H](N)Cc1ccc(O)cc1)[C@@H](C)O)[C@@H](C)CC)C(=O)N[C@@H](C)C(=O)N[C@@H](CCSC)C(=O)N[C@@H](CC(=O)O)C(=O)N[C@@H](CCCCN)C(=O)N[C@H](C(=O)N[C@@H](Cc1c[nH]cn1)C(=O)N[C@@H](CCC(N)=O)C(=O)N[C@@H](CCC(N)=O)C(=O)N[C@@H](CC(=O)O)C(=O)N[C@@H](Cc1ccccc1)C(=O)N[C@H](C(=O)N[C@@H](CC(N)=O)C(=O)N[C@@H](Cc1c[nH]c2ccccc12)C(=O)N[C@@H](CC(C)C)C(=O)N[C@@H](CC(C)C)C(=O)N[C@@H](C)C(=O)N[C@@H](CCC(N)=O)C(=O)N[C@@H](CCCCN)C(N)=O)C(C)C)[C@@H](C)CC` [Example 17, (Aib^2, 8)hGIP(1-30)-NH2] (H-Y[Aib]EGTFI[Aib]DYSIAMDKIHQQDFVNWLLAQK-NH2; N-terminus assumed), the half-life at 0.1 mg/ml in series [1] is 17.4 h; in series [2] it was 55 h. The Ki in series [3] was determined as 15.9 nM.

On to `CCCC[C@H](NC(=O)[C@H](C)NC(=O)[C@@H](NC(=O)C1(NC(=O)[C@H](Cc2ccc(O)cc2)NC(=O)[C@H](CC(=O)O)NC(=O)[C@H](CO)NC(=O)[C@@H](NC(=O)[C@H](Cc2ccccc2)NC(=O)[C@@H](NC(=O)CNC(=O)[C@@H]2CCCN2C(=O)[C@H](C)NC(=O)[C@@H](N)Cc2ccc(O)cc2)[C@@H](C)O)[C@@H](C)CC)CCCC1)[C@@H](C)CC)C(=O)N[C@@H](CC(=O)O)C(=O)N[C@@H](CCCCN)C(=O)N[C@H](C(=O)N[C@@H](Cc1c[nH]cn1)C(=O)N[C@@H](CCC(N)=O)C(=O)N[C@@H](CCC(N)=O)C(=O)N[C@@H](CC(=O)O)C(=O)N[C@@H](Cc1ccccc1)C(=O)N[C@H](C(=O)N[C@@H](CC(N)=O)C(=O)N[C@@H](Cc1c[nH]c2ccccc12)C(=O)N[C@@H](CC(C)C)C(=O)N[C@@H](CC(C)C)C(=O)N[C@@H](C)C(=O)N[C@@H](CCC(N)=O)C(=O)N[C@@H](CCCCN)C(=O)O)C(C)C)[C@@H](C)CC` [Example 92, (Pro^3, A5c^11, Nle^14)hGIP(1-30)-OH] (H-YAPGTFISDY[Ac5c]IA[Nle]DKIHQQDFVNWLLAQK-OH; N-terminus and C-terminus assumed), for which the half-life at 0.1 mg/ml was 12 h in series [1] and 1.6 h in series [2]. The Ki in series [3] was 86.8 nM.

The values are drawn from patent publication US9074014B2 (Ipsen Pharma S.A.S., priority 2008, dated 2015).
